Measurements: ChEMBL document CHEMBL1148445, “Synthesis of 2',5'-dideoxy-2-fluoroadenosine and 2',5'-dideoxy-2,5'-difluoroadenosine: potent P-site inhibitors of adenylyl cyclase” (J Med Chem, 2004)

Target: Adenylate cyclase type 5 (Rattus norvegicus, UniProt Q04400)
Test: Compound was evaluated for inhibition of adenylate cyclase from rat brain
Type: tissue-based

Adenylate cyclase type 5, sequence (Q04400 whole entry): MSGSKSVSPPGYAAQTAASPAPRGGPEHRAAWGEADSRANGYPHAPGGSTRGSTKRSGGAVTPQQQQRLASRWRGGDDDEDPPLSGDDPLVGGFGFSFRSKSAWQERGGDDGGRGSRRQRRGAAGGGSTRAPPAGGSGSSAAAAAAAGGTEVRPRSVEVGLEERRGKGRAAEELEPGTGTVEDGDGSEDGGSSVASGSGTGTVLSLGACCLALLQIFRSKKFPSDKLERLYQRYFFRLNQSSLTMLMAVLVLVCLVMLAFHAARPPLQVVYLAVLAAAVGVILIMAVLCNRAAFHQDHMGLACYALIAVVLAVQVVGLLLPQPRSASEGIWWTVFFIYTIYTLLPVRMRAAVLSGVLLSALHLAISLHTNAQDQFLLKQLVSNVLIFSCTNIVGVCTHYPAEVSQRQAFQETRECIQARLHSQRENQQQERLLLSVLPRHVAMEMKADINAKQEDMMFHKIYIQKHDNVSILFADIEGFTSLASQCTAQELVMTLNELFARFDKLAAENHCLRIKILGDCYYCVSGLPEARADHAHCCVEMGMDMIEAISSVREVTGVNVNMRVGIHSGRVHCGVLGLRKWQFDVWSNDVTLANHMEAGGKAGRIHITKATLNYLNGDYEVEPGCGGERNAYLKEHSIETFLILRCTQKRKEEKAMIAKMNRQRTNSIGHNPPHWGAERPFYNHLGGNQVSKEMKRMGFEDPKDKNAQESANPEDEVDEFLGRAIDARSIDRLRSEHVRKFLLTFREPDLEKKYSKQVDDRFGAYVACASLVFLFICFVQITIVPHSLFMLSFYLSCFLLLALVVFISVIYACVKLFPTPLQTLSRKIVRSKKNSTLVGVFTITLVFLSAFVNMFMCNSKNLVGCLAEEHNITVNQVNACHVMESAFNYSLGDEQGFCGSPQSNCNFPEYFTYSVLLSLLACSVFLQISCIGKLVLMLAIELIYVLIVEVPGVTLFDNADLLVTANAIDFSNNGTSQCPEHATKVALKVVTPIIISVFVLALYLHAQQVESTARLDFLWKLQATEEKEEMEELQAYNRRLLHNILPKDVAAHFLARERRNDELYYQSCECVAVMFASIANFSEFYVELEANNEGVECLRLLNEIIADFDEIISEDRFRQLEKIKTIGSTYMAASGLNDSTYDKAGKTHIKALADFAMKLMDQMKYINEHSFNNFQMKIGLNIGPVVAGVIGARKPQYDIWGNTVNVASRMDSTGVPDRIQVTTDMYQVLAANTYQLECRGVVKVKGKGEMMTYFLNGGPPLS

| SMILES | IC50 [µM] |
| --- | --- |
| C[C@@H]1O[C@H](n2cnc3c(N)ncnc32)C[C@H]1O | 2.8 |
| Nc1nc(F)nc2c1ncn2[C@H]1C[C@H](O)[C@@H](CO)O1 (stereo in doubt; form 1) | 4.6 |
| C[C@H]1O[C@@H](n2cnc3c(N)nc(F)nc32)C[C@@H]1O (stereo in doubt; form 1) | > 100 |
| Nc1nc(F)nc2c1ncn2[C@H]1C[C@H](O)[C@@H](CF)O1 (stereo in doubt; form 1) | 29 |
| Nc1nc(F)nc2c1ncn2[C@H]1C[C@H](O)[C@@H](CO)O1 (stereo in doubt; form 2) | > 100 |
| C[C@H]1O[C@@H](n2cnc3c(N)nc(F)nc32)C[C@@H]1O (stereo in doubt; form 2) | 0.89 |
| Nc1nc(F)nc2c1ncn2[C@H]1C[C@H](O)[C@@H](CF)O1 (stereo in doubt; form 2) | 0.98 |
| Nc1ncnc2c1ncn2[C@@H]1O[C@H](CO)[C@@H](O)[C@H]1O [ADENOSINE] | > 300 |
| Nc1ncnc2c1ncn2[C@H]1C[C@H](O)[C@@H](CO)O1 [DEOXYADENOSINE] | 15 |
| Nc1ncnc2c1ncn2[C@@H]1O[C@H](CO)[C@@H](O)[C@@H]1O [VIDARABINE] | 82 |
